In US9790209B2, “Kinase inhibitors” (Respivert Limited, priority 2012, dated 2017):
Where two headings read alike, the source gives them in different places.

Tests used:
HT29 cells = assay: IL-1-induced IL-8 release in HT29 cells; type: cell-based; details: Homo sapiens, HT-29, IL-1β-stimulated HT29 cells, read-out: IC50 Values for Inhibition of Cytokine Release HT29 cells IL-8
Method: HT29 cells, a human colon adenocarcinoma cell line, are plated in a 96 well plate (24 hrs) and pre-treated with compounds at the desired concentration for 2 hours before addition of 5 ng/mL of IL-1β (Abcam) for 24 hours. Supernatants are harvested for IL-8 quantification by Sandwich ELISA (Duo-set, R&D System). The IC50 is determined from the dose response curve.

[1] = tested on: TNBS-induced colitis in mice; assay: TNBS-induced colitis in mice; type: in vivo; set-up: Ulcer grade / LP inflammation: scale not given here; details: for LP inflammation / Ulcer grade: 2 days; for Activity in in vivo model of colonic inflammation (histopathology analysis) / Inflammatory cell infiltrate in the reticular and lamina propria zones: assay (iv) conducted over 2 days; for Ulcer grade and epithelial repair compared to the vehicle control: dosed orally at 5 mg/kg (Example 2: at 1 and at 5 mg/kg)
Method: On Day 0 of the study TNBS (200 μL) is administered intra-colonically via a plastic catheter followed by BID dosing of the vehicle, reference or test compound for 2 or 4 days. During the study animals are weighed every day and stool observations are made and recorded as a score, based on stool consistency. At the time of sacrifice on Day 2 (or Day 4) the large intestine is removed and the length and weight recorded. Sections of the colon are taken for either MPO analysis to determine neutrophil infiltration or for histopathology involving scoring to determine disease severity.

c-Src = c-Src (Homo sapiens (Human), UniProt P12931); assay: c-Src enzyme inhibition, Z-LYTE FRET; type: biochemical
c-Src, sequence (P12931 whole entry, looked up): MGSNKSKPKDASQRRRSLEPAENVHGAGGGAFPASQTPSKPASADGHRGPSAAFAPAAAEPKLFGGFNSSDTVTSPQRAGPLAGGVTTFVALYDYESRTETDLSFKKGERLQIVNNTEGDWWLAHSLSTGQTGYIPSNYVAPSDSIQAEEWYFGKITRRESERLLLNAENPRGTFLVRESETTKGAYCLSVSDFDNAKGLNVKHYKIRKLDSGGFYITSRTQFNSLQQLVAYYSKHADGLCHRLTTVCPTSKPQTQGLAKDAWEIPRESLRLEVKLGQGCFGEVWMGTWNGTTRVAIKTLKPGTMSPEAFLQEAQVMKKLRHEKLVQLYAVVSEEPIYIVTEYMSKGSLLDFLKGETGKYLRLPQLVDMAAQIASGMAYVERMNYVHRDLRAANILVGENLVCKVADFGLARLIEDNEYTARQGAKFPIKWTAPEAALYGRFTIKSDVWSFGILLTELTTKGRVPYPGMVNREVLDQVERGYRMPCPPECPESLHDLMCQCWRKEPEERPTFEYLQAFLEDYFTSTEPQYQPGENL
Method: (§1) The enzyme inhibitory activities of compounds disclosed herein are determined by FRET using synthetic peptides labelled with both donor and acceptor fluorophores (Z-LYTE, Invitrogen Ltd., Paisley, UK).
(§2) The inhibitory activities of compounds of the invention against c-Src and Syk enzymes (Invitrogen), are evaluated in a similar fashion to that described hereinabove. The relevant enzyme (3000 ng/mL or 2000 ng/mL respectively, 2.5 μL) is incubated with the test compound (either 4 μg/mL, 0.4 μg/mL, 0.04 μg/mL, or 0.004 μg/mL, 2.5 μL each) for 2 hr at RT. The FRET peptides (8 μM. 2.5 μL), and appropriate ATP solutions (2.5 μL, 800 μM for c-Src, and 60 μM ATP for Syk) are then added to the enzymes/compound mixtures and incubated for 1 hr. Development reagent (protease, 5 μL) is added for 1 hr prior to detection in a fluorescence microplate reader (Varioskan® Flash, ThermoFisher Scientific).
(§3) In all cases, the site-specific protease cleaves non-phosphorylated peptide only and eliminates the FRET signal. Phosphorylation levels of each reaction are calculated using the ratio of coumarin emission (donor) over fluorescein emission (acceptor), for which high ratios indicate high phosphorylation and low ratios indicate low phosphorylation levels. The percentage inhibition of each reaction is calculated relative to non-inhibited control and the 50% inhibitory concentration (IC50 value) is then calculated from the concentration-response curve.

PBMCs [2] = assay: LPS-induced TNFα/IL-8 release in PBMC cells; type: cell-based; details: Homo sapiens, LPS-stimulated PBMCs, IL-8, read-out: IC50 Values for Inhibition of Cytokine Release PBMCs IL-8
Method: Peripheral blood mononuclear cells (PBMCs) from healthy subjects are separated from whole blood using a density gradient (Lymphoprep, Axis-Shield Healthcare). The PBMCs are seeded in 96 well plates and treated with compounds at the desired concentration for 2 hours before addition of 1 ng/mL LPS (Escherichia Coli 0111:B4 from Sigma Aldrich) for 24 hours under normal tissue culture conditions (37° C., 5% CO2). The supernatant is harvested for determination of IL-8 and TNFα concentrations by sandwich ELISA (Duo-set, R&D systems) and read on the fluorescence microplate reader (Varioskan® Flash, ThermoFisher Scientific). The concentration at 50% inhibition (IC50) of IL-8 and TNFα production is calculated from the dose response curve.

Syk = Syk (Homo sapiens (Human), UniProt P43405); assay: Syk enzyme inhibition, Z-LYTE FRET; type: biochemical
Method: as §1, §2, §3

d-U937 cells = assay: LPS-induced TNFα/IL-8 release in d-U937 cells; type: cell-based; details: Homo sapiens, dU937, LPS-stimulated d-U937 cells
Method: U937 cells, a human monocytic cell line, are differentiated to macrophage-type cells by incubation with phorbol myristate acetate (PMA; 100 ng/mL) for 48 to 72 hr. Cells are pre-incubated with final concentrations of test compound for 2 hr and are then stimulated with 0.1 μg/mL of LPS (from E. Coli: 0111:B4, Sigma) for 4 hr. The supernatant is collected for determination of TNFα and IL-8 concentrations by sandwich ELISA (Duo-set, R&D systems). The inhibition of TNFα production is calculated as a percentage of that achieved by 10 μg/mL of BIRB796 at each concentration of test compound by comparison against vehicle control. The relative 50% effective concentration (REC50) is determined from the resultant concentration-response curve. The inhibition of IL-8 production is calculated at each concentration of test compound by comparison with vehicle control. The 50% inhibitory concentration (IC50) is determined from the resultant concentration-response curve.

PBMCs [3] = assay: IL-2 and IFN gamma release in CD3/CD28 stimulated PBMC cells; type: cell-based; details: Homo sapiens
Method: PBMCs from healthy subjects are separated from whole blood using a density gradient (Lymphoprep, Axis-Shield Healthcare). Cells are added to a 96 well plate pre-coated with a mixture of CD3/CD38 monoclonal antibodies (0.3 μg/mL eBioscience and 3 μg/mL BD Pharmingen respectively). Compound at the desired concentration is then added to the wells and the plate left for 3 days under normal tissue culture conditions. Supernatants are harvested and IL-2 and IFN gamma release determined by Sandwich ELISA (Duo-set, R&D System). The IC50 is determined from the dose response curve.

[4] = tested on: intestinal mucosa biopsies from the inflamed regions of the colon of ulcerative colitis patients; assay: Human biopsy assay (ex-vivo cytokine release); type: cell-based; details: 1 μg/mL, 24 hours; for Cytokine (IL-1β, IL-6 and IL-8) release compared to the DMSO control: biopsies from ulcerative colitis patients; for IL-1β release from biopsies of UC patients / IL-6 release from biopsies of UC patients / IL-8 release from biopsies of UC patients: relative to DMSO control = 100%
Method: Intestinal mucosa biopsies are obtained from the inflamed regions of the colon of IBD patients. The biopsy material is cut into small pieces (2-3 mm) and placed on steel grids in an organ culture chamber at 37° C. in a 5% CO2/95% O2 atmosphere in serum-free media. DMSO control or test compounds at the desired concentration are added to the tissue and incubated for 24 hr in the organ culture chamber. The supernatant is harvested for determination of IL-6, IL-8, IL-1P and TNFα levels by R&D ELISA.
Percentage inhibition of cytokine release by the test compounds is calculated relative to the cytokine release determined for the DMSO control (100%).

[5] = IL-8, read-out: IC50 Values for Inhibition of Cytokine Release dU937 cells IL-8
[6] = IFNγ, read-out: IC50 Values for Inhibition of Cytokine Release PBMCs IFNγ
[7] = IL-2, read-out: IC50 Values for Inhibition of Cytokine Release PBMCs IL-2

In the case of `C#CC(C)(C)c1cc(NC(=O)Nc2ccc(Oc3ccnc(Nc4cc(C)c5[nH]ncc5c4)n3)c3ccccc23)n(-c2ccc(C)cc2)n1` [Example 2, 1-(4-((2-((7-Methyl-1H-indazol-5-yl)amino)pyrimidin-4-yl)oxy)naphthalen-1-yl)-3-(3-(2-methylbut-3-yn-2-yl)-1-(p-tolyl)-1H-pyrazol-5-yl)urea], the IC50 (HT29 cells) is reported as 3.2 nM, the LP inflammation ([1]; Experiment 1, 1 mg/kg oral BID, TNBS + Vehicle 3.9 ± 0.3) is reported as 2.7 ± 0.4 and the Ulcer grade ([1]; Experiment 1, 1 mg/kg oral BID, TNBS + Vehicle 4.0 ± 0.5) is reported as 3.4 ± 0.6. For the same compound, the LP inflammation ([1]; Experiment 1, 5 mg/kg oral BID, TNBS + Vehicle 3.9 ± 0.3) was 1.7 ± 0.4, the Ulcer grade ([1]; Experiment 1, 5 mg/kg oral BID, TNBS + Vehicle 4.0 ± 0.5) was 2.4 ± 0.6 and the “Activity in in vivo model of colonic inflammation (histopathology analysis)” value [1] was “significant activity”. The “Inflammatory cell infiltrate in the reticular and lamina propria zones” value [1] was “marked reduction”, the “Ulcer grade and epithelial repair compared to the vehicle control” value [1] was “marked improvements” and the IC50 (c-Src) was 24 nM. For the same compound, the IC50 (PBMCs [2]) was 2 nM, the IC50 (Syk) was 50 nM and the IC50 (d-U937 cells; [5]) was 0.9 nM. It also gave an IC50 (d-U937 cells; TNFα (method describes REC50 relative to BIRB796), read-out: IC50 Values for Inhibition of Cytokine Release dU937 cells TNFα) of 0.4 nM, an IC50 (PBMCs [3]; [6]) of 3.6 nM and an IC50 (PBMCs [3]; [7]) of 18 nM. The “Cytokine (IL-1β, IL-6 and IL-8) release compared to the DMSO control” value [4] was “significantly inhibited”, the “IL-1β release from biopsies of UC patients” value [4] was 20 ± 13% and the “IL-6 release from biopsies of UC patients” value [4] was 37 ± 41%. The “IL-8 release from biopsies of UC patients” value [4] was 22 ± 21%.

`C#CC(C)(C)c1cc(NC(=O)Nc2ccc(Oc3ccnc(Nc4cc(OC)cc(OCCOCCOCCOC)c4)n3)c3ccccc23)n(-c2ccc(C)cc2)n1` [Example 13, 1-(4-((2-((3-Methoxy-5-(2-(2-(2-methoxyethoxy)ethoxy)ethoxy)phenyl)amino)pyrimidin-4-yl)oxy)naphthalen-1-yl)-3-(3-(2-methylbut-3-yn-2-yl)-1-(p-tolyl)-1H-pyrazol-5-yl)urea] gave an IC50 (HT29 cells) of 1.7 nM, a Ulcer grade ([1]; Experiment 2, 1 mg/kg oral BID, TNBS + Vehicle 4.4 ± 0.2) of 3.0 ± 0.4 and an LP inflammation ([1]; Experiment 2, 1 mg/kg oral BID, TNBS + Vehicle 4.5 ± 0.2) of 2.8 ± 0.3. The Ulcer grade ([1]; Experiment 2, 5 mg/kg oral BID, TNBS + Vehicle 4.4 ± 0.2) was 2.9 ± 0.5, the LP inflammation ([1]; Experiment 2, 5 mg/kg oral BID, TNBS + Vehicle 4.5 ± 0.2) was 2.3 ± 0.3 and the “Activity in in vivo model of colonic inflammation (histopathology analysis)” value [1] was “significant activity”. For the same compound, the “Inflammatory cell infiltrate in the reticular and lamina propria zones” value [1] was “marked reduction”, the “Ulcer grade and epithelial repair compared to the vehicle control” value [1] was “marked improvements” and the IC50 (c-Src) was 16 nM. The IC50 (PBMCs [2]) was 1.7 nM, the IC50 (Syk) was 61 nM and the IC50 (d-U937 cells; [5]) was 0.5 nM. The IC50 (PBMCs [3]; [6]) was 1.3 nM, the IC50 (PBMCs [3]; [7]) was 58.8 nM and the “Cytokine (IL-1β, IL-6 and IL-8) release compared to the DMSO control” value [4] was “significantly inhibited”. The “IL-1β release from biopsies of UC patients” value [4] was 3 ± 3%, the “IL-6 release from biopsies of UC patients” value [4] was 37 ± 52% and the “IL-8 release from biopsies of UC patients” value [4] was 7 ± 8%.
